Source: ChEMBL document CHEMBL4251700, “Novel Staphyloxanthin Inhibitors with Improved Potency against Multidrug Resistant Staphylococcus aureus” (ACS Med Chem Lett, 2018)
Activity calls are given as the source filed them. The calls are words filed in the database; no cut-off is given here.

Columns and labels:
[1] = molecular target: T1, 4,4'-diapophytoene desaturase (4,4'-diaponeurosporene-forming) (Staphylococcus aureus (strain MW2), UniProt Q8NUQ6); test: Inhibition of CrtN in methicillin-resistant Staphylococcus aureus LAC USA300 assessed as reduction in staphyloxanthin levels after 48 hrs by spectrophotometric method-based pigment inhibition assay; set-up: species or system Staphylococcus aureus subsp. aureus USA300
T1 sequence (Q8NUQ6 whole entry): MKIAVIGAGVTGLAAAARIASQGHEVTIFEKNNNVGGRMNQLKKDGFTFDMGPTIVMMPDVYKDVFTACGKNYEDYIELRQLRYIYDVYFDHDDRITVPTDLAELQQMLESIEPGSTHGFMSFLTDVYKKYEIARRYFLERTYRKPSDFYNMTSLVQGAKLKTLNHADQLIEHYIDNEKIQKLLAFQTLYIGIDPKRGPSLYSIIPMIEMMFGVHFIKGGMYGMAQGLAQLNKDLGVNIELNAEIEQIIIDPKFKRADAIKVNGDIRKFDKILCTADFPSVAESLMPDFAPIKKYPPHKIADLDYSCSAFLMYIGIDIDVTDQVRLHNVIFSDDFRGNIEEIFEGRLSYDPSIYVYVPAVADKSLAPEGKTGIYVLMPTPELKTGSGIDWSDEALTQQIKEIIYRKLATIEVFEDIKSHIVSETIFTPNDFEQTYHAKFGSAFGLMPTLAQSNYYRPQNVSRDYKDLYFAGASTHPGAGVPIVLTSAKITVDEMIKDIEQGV

[2] = molecular target: T2, 4,4'-diapophytoene desaturase (4,4'-diaponeurosporene-forming) (Staphylococcus aureus (strain MW2)) (UniProt Q8NUQ6); test: Inhibition of CrtN in Staphylococcus aureus USA300 LAC assessed as H2O2-induced bacterial death by measuring reduction in bacterial survival at 1 uM preincubated for 24 hrs followed by H2O2 addition measured after 30 mins by serial dilution method; conditions: Staphylococcus aureus subsp. aureus USA300
T2 sequence (whole entry): T1 sequence (Q8NUQ6 whole entry)

## CN(C/C=C/C=C/c1ccc(C(F)(F)F)cc1)Cc1ccc2c(c1)OCCO2.Cl
[1]
  IC50: 5.5 nM
[2]
  inhibition: Active
